The record followed here is ChEMBL document CHEMBL1147323, “The effect of ginsenoside-Rb2 on nitrogen balance” (1989).

The test system of experiment [1] is Rattus norvegicus. Put plainly: Effect on nitrogen balance in Wistar rat diabetic model assessed as residual fecal nitrogen at 10 mg/day, ip for 6 days measured 6 hrs after last dose relative to non-diabetic control. The class given is functional, Feces.
For experiment [2], the system named is Rattus norvegicus. The experiment is described as follows: Effect on nitrogen balance in Wistar rat diabetic model assessed as residual urinary nitrogen at 10 mg/day, ip for 6 days measured 6 hrs after last dose relative to non-diabetic control. The class given is functional, Urine.
The subject of experiment [3] is Rattus norvegicus. Put plainly: Effect on nitrogen balance in Wistar rat diabetic model assessed as retained nitrogen at 10 mg/day, ip for 6 days measured 6 hrs after last dose relative to diabetic control. The class given is functional.
The test system of experiment [4] is Rattus norvegicus. The experiment is described as follows: Effect on nitrogen balance in Wistar rat diabetic model assessed as absorbed nitrogen at 10 mg/day, ip for 6 days measured 6 hrs after last dose relative to non-diabetic control. It is filed as functional.
The test system of experiment [5] is Rattus norvegicus. The experiment is described as follows: Effect on nitrogen balance in Wistar rat diabetic model assessed as absorbed nitrogen at 10 mg/day, ip for 6 days measured 6 hrs after last dose relative to diabetic control. The class given is functional.
Experiment [6] relates to Rattus norvegicus. The experiment is described as follows: Effect on nitrogen balance in Wistar rat diabetic model assessed as residual fecal nitrogen at 10 mg/day, ip for 6 days measured 6 hrs after last dose relative to diabetic control. It is filed as functional, Feces.
The test system of experiment [7] is Rattus norvegicus. Put plainly: Effect on nitrogen balance in Wistar rat diabetic model assessed as residual urinary nitrogen at 10 mg/day, ip for 6 days measured 6 hrs after last dose relative to diabetic control. The class given is functional, Urine.
The test system of experiment [8] is Rattus norvegicus. Put plainly: Effect on nitrogen balance in Wistar rat diabetic model assessed as retained nitrogen at 10 mg/day, ip for 6 days measured 6 hrs after last dose relative to non-diabetic control. The class given is functional.

Regarding `CC(C)=CCC[C@](C)(O[C@@H]1O[C@H](CO[C@@H]2OC[C@H](O)[C@H](O)[C@H]2O)[C@@H](O)[C@H](O)[C@H]1O)[C@H]1CC[C@]2(C)[C@@H]1[C@H](O)C[C@@H]1[C@@]3(C)CC[C@H](O[C@@H]4O[C@H](CO)[C@@H](O)[C@H](O)[C@H]4O[C@@H]4O[C@H](CO)[C@@H](O)[C@H](O)[C@H]4O)C(C)(C)[C@@H]3CC[C@]12C` [GINSENOSIDE RB2], the Activity in the experiment with Rattus norvegicus [1] came to 186%; in the experiment on Rattus norvegicus [2], 223%; in the experiment on Rattus norvegicus [3], 415%; in the experiment on Rattus norvegicus [4] it was 225%; in the experiment with Rattus norvegicus [5] it was 104%; with Rattus norvegicus [6] it was 93%. The Activity in the experiment on Rattus norvegicus [7] came out at 75%; in the experiment on Rattus norvegicus [8], 313%.
